Values quoted from earlier work, collected in patent US20100143322A1, “USE OF INHIBITORS OF N-METHYL TRANSFERASES FOR THE THERAPY OF PARKINSON'S DISEASE” (priority 2005, published 2010).

Molecular target: T1, phenylethanolamine N-methyl transferase (PNMT) (Homo sapiens, UniProt P11086)
T1 sequence (P11086 1-282): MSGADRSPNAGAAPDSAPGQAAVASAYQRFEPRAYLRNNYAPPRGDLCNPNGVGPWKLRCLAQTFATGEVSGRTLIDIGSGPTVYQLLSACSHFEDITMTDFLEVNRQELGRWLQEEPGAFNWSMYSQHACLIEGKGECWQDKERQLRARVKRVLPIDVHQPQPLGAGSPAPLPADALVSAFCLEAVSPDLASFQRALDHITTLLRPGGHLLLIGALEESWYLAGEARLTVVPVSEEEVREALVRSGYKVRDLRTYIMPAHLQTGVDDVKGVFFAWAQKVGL
Conditions: less than 2 mg of Ala-Cys-Cys, isolated from rabbit liver and purified

- inhibition of the PNMT in the PNMT test: > 90%
Substance: Ala-Cys-Cys
